Measured values published in PubChem BioAssay (NCI).
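How tested: cells in 96-well plates exposed to compound for 48 hours at five concentrations. GI50 marks 50% less growth. TGI: concentration producing complete growth inhibition.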

Assays:
Test in all cases: inhibition of tumour cell growth, NCI panel, 48 h
COLO 205 colon = tested on: COLO 205 colon
HCT-116 colon = tested on: HCT-116 colon
OVCAR-3 ovarian = tested on: OVCAR-3 ovarian
SF-268 CNS = tested on: SF-268 CNS
K-562 leukemia = tested on: K-562 leukemia
KM12 colon = tested on: KM12 colon
RPMI-8226 leukemia = tested on: RPMI-8226 leukemia
MDA-N = tested on: MDA-N
MOLT-4 leukemia = tested on: MOLT-4 leukemia
UACC-62 melanoma = tested on: UACC-62 melanoma
SK-MEL-28 melanoma = tested on: SK-MEL-28 melanoma
SR leukemia = tested on: SR leukemia
MCF7 breast = tested on: MCF7 breast
SK-MEL-5 melanoma = tested on: SK-MEL-5 melanoma
NCI-H522 lung = tested on: NCI-H522 lung
SK-MEL-2 melanoma = tested on: SK-MEL-2 melanoma
HT29 colon = tested on: HT29 colon
UACC-257 melanoma = tested on: UACC-257 melanoma
HL-60(TB) leukemia = tested on: HL-60(TB) leukemia
SF-295 CNS = tested on: SF-295 CNS
T-47D breast = tested on: T-47D breast
MDA-MB-435 = tested on: MDA-MB-435
PC-3 prostate = tested on: PC-3 prostate
SF-539 CNS = tested on: SF-539 CNS
OVCAR-4 ovarian = tested on: OVCAR-4 ovarian
OVCAR-5 ovarian = tested on: OVCAR-5 ovarian
HCT-15 colon = tested on: HCT-15 colon
HS 578T breast = tested on: HS 578T breast
OVCAR-8 ovarian = tested on: OVCAR-8 ovarian
BT-549 breast = tested on: BT-549 breast
NCI-H226 lung = tested on: NCI-H226 lung
A549 NSCLC = tested on: A549 NSCLC
DU-145 prostate = tested on: DU-145 prostate
CCRF-CEM leukemia = tested on: CCRF-CEM leukemia
U251 CNS = tested on: U251 CNS
UO-31 renal = tested on: UO-31 renal
NCI-H23 lung = tested on: NCI-H23 lung
SNB-75 CNS = tested on: SNB-75 CNS
MALME-3M melanoma = tested on: MALME-3M melanoma
CAKI-1 renal = tested on: CAKI-1 renal
SN12C renal = tested on: SN12C renal
SW-620 colon = tested on: SW-620 colon
NCI/ADR-RES ovarian = tested on: NCI/ADR-RES ovarian
RXF 393 renal = tested on: RXF 393 renal
MDA-MB-231 breast = tested on: MDA-MB-231 breast
A498 renal = tested on: A498 renal
IGROV1 ovarian = tested on: IGROV1 ovarian
NCI-H460 lung = tested on: NCI-H460 lung
TK-10 renal = tested on: TK-10 renal
HOP-62 NSCLC = tested on: HOP-62 NSCLC
LOX IMVI melanoma = tested on: LOX IMVI melanoma
M14 melanoma = tested on: M14 melanoma
SNB-19 CNS = tested on: SNB-19 CNS
786-0 renal = tested on: 786-0 renal
SK-OV-3 ovarian = tested on: SK-OV-3 ovarian
EKVX NSCLC = tested on: EKVX NSCLC
HOP-92 NSCLC = tested on: HOP-92 NSCLC
ACHN renal = tested on: ACHN renal
HCC-2998 colon = tested on: HCC-2998 colon

Compound: O=C1C2=C(Nc3cc([N+](=O)[O-])ccc3N2)OC1c1ccc(C2OC3=C(Nc4ccc([N+](=O)[O-])cc4N3)C2=O)cc1 (stereo not drawn)
- GI50 (COLO 205 colon): 19.7 µM
- TGI (COLO 205 colon): 45.1 µM
- GI50 (HCT-116 colon): 79.9 µM
- GI50 (OVCAR-3 ovarian): 37.5 µM
- GI50 (SF-268 CNS): 64.9 µM
- GI50 (K-562 leukemia): 19.1 µM
- GI50 (KM12 colon): 26.1 µM
- GI50 (RPMI-8226 leukemia): 53.6 µM
- GI50 (MDA-N): 42.8 µM
- GI50 (MOLT-4 leukemia): 22 µM
- GI50 (UACC-62 melanoma): 30.4 µM
- GI50 (SK-MEL-28 melanoma): 41.8 µM
- GI50 (SR leukemia): 19.4 µM
- GI50 (MCF7 breast): 53.3 µM
- GI50 (SK-MEL-5 melanoma): 38.9 µM
- GI50 (NCI-H522 lung): 6.12 µM
- GI50 (SK-MEL-2 melanoma): 63.3 µM
- GI50 (HT29 colon): 98.9 µM
- GI50 (UACC-257 melanoma): 28 µM
- TGI (UACC-257 melanoma): 96.8 µM
- GI50 (HL-60(TB) leukemia): 0.184 µM
- TGI (HL-60(TB) leukemia): 1.09 µM
- GI50 (SF-295 CNS): 23.3 µM
- TGI (SF-295 CNS): 77.3 µM
- GI50 (T-47D breast): 48 µM
- GI50 (MDA-MB-435): 22.1 µM
- TGI (MDA-MB-435): 53.4 µM

Compound: COc1ccccc1Cn1c2c(c3cc(O)ccc31)C(=O)c1ccccc1C2=O
- TGI (PC-3 prostate): 53.5 µM
- TGI (SF-539 CNS): 57.6 µM
- TGI (OVCAR-4 ovarian): 12 µM
- TGI (COLO 205 colon): > 100 µM
- TGI (OVCAR-5 ovarian): 34.1 µM
- TGI (HCT-15 colon): > 100 µM
- TGI (HCT-116 colon): > 100 µM
- TGI (HS 578T breast): > 100 µM
- TGI (OVCAR-3 ovarian): > 100 µM
- TGI (OVCAR-8 ovarian): 61.9 µM
- TGI (SF-268 CNS): 86.1 µM
- TGI (BT-549 breast): > 100 µM
- TGI (K-562 leukemia): > 100 µM
- TGI (KM12 colon): > 100 µM
- TGI (NCI-H226 lung): 79 µM
- TGI (A549 NSCLC): > 100 µM
- TGI (RPMI-8226 leukemia): 45.7 µM
- TGI (DU-145 prostate): > 100 µM
- TGI (MDA-N): > 100 µM
- TGI (MOLT-4 leukemia): > 100 µM
- TGI (UACC-62 melanoma): 82.9 µM
- TGI (SK-MEL-28 melanoma): > 100 µM
- TGI (SR leukemia): > 100 µM
- TGI (MCF7 breast): 96.7 µM
- TGI (SK-MEL-5 melanoma): > 100 µM
- TGI (CCRF-CEM leukemia): > 100 µM
- TGI (U251 CNS): 64.9 µM
- TGI (UO-31 renal): > 100 µM
- TGI (NCI-H23 lung): 95.8 µM
- TGI (SNB-75 CNS): 58.8 µM
- TGI (MALME-3M melanoma): > 100 µM
- TGI (SK-MEL-2 melanoma): > 100 µM
- TGI (CAKI-1 renal): 69.7 µM
- TGI (SN12C renal): > 100 µM
- TGI (SW-620 colon): > 100 µM
- TGI (NCI/ADR-RES ovarian): 40.4 µM
- TGI (RXF 393 renal): 14.3 µM
- TGI (MDA-MB-231 breast): 38.2 µM
- TGI (A498 renal): > 100 µM
- TGI (IGROV1 ovarian): > 100 µM
- TGI (NCI-H460 lung): > 100 µM
- TGI (TK-10 renal): > 100 µM
- TGI (HT29 colon): > 100 µM
- TGI (HOP-62 NSCLC): > 100 µM
- TGI (UACC-257 melanoma): > 100 µM
- TGI (HL-60(TB) leukemia): > 100 µM
- TGI (SF-295 CNS): 42.2 µM
- TGI (LOX IMVI melanoma): > 100 µM
- TGI (M14 melanoma): > 100 µM
- TGI (SNB-19 CNS): > 100 µM
- TGI (MDA-MB-435): > 100 µM
- TGI (786-0 renal): 45.5 µM
- TGI (SK-OV-3 ovarian): 10 µM

Compound: CCOP(=O)(COCCn1nc(Br)c(=O)[nH]c1=O)OCC
- TGI (PC-3 prostate): > 100 µM
- TGI (SF-539 CNS): > 100 µM
- TGI (COLO 205 colon): > 100 µM
- TGI (OVCAR-5 ovarian): > 100 µM
- TGI (HCT-15 colon): > 100 µM
- TGI (HS 578T breast): > 100 µM
- TGI (OVCAR-3 ovarian): > 100 µM
- TGI (OVCAR-8 ovarian): > 100 µM
- TGI (SF-268 CNS): > 100 µM
- TGI (EKVX NSCLC): > 100 µM
- TGI (K-562 leukemia): > 100 µM
- TGI (KM12 colon): > 100 µM
- TGI (NCI-H226 lung): > 100 µM
- TGI (A549 NSCLC): > 100 µM
- TGI (RPMI-8226 leukemia): > 100 µM
- TGI (DU-145 prostate): > 100 µM
- TGI (MDA-N): > 100 µM
- TGI (MOLT-4 leukemia): > 100 µM
- TGI (SK-MEL-28 melanoma): > 100 µM
- TGI (SR leukemia): > 100 µM
- TGI (MCF7 breast): > 100 µM
- TGI (SK-MEL-5 melanoma): > 100 µM
- TGI (NCI-H522 lung): > 100 µM
- TGI (CCRF-CEM leukemia): > 100 µM
- TGI (U251 CNS): > 100 µM
- TGI (UO-31 renal): > 100 µM
- TGI (NCI-H23 lung): > 100 µM
- TGI (HOP-92 NSCLC): > 100 µM
- TGI (SNB-75 CNS): > 100 µM
- TGI (MALME-3M melanoma): > 100 µM
- TGI (SK-MEL-2 melanoma): > 100 µM
- TGI (CAKI-1 renal): > 100 µM
- TGI (SN12C renal): > 100 µM
- TGI (SW-620 colon): > 100 µM
- TGI (NCI/ADR-RES ovarian): > 100 µM
- TGI (RXF 393 renal): > 100 µM
- TGI (MDA-MB-231 breast): > 100 µM
- TGI (A498 renal): > 100 µM
- TGI (IGROV1 ovarian): > 100 µM
- TGI (NCI-H460 lung): > 100 µM
- TGI (HOP-62 NSCLC): > 100 µM
- TGI (UACC-257 melanoma): > 100 µM
- TGI (HL-60(TB) leukemia): > 100 µM
- TGI (ACHN renal): > 100 µM
- TGI (HCC-2998 colon): > 100 µM
- TGI (LOX IMVI melanoma): > 100 µM
- TGI (M14 melanoma): > 100 µM
- TGI (SNB-19 CNS): > 100 µM
- TGI (T-47D breast): > 100 µM
- TGI (MDA-MB-435): > 100 µM

Compound: O=C(/C(=N/Nc1cn[nH]c(=O)c1Cl)c1ccccc1)c1ccccc1
- TGI (PC-3 prostate): > 100 µM
- TGI (SF-539 CNS): 71.1 µM
- TGI (OVCAR-4 ovarian): > 100 µM
- TGI (COLO 205 colon): 49.4 µM
- TGI (HCT-15 colon): 51.3 µM
- TGI (HCT-116 colon): 99.1 µM
- TGI (OVCAR-3 ovarian): 56.2 µM
- TGI (OVCAR-8 ovarian): > 100 µM
- TGI (EKVX NSCLC): 83.1 µM
- TGI (K-562 leukemia): > 100 µM
- TGI (KM12 colon): 32.9 µM
- TGI (NCI-H226 lung): > 100 µM
- TGI (A549 NSCLC): > 100 µM
- TGI (RPMI-8226 leukemia): 60.7 µM
- TGI (DU-145 prostate): 54.3 µM
- TGI (MDA-N): 32.8 µM
- TGI (MOLT-4 leukemia): 97.2 µM
- TGI (UACC-62 melanoma): 53.5 µM
- TGI (SK-MEL-28 melanoma): > 100 µM
- TGI (MCF7 breast): > 100 µM
- TGI (SK-MEL-5 melanoma): > 100 µM
- TGI (NCI-H522 lung): 77.2 µM
- TGI (CCRF-CEM leukemia): > 100 µM
- TGI (U251 CNS): > 100 µM
- TGI (UO-31 renal): > 100 µM
- TGI (NCI-H23 lung): 66.6 µM
- TGI (HOP-92 NSCLC): > 100 µM
- TGI (SNB-75 CNS): 71.6 µM
- TGI (MALME-3M melanoma): > 100 µM
- TGI (SK-MEL-2 melanoma): > 100 µM
- TGI (CAKI-1 renal): 93.1 µM
- TGI (SN12C renal): > 100 µM
- TGI (SW-620 colon): > 100 µM
- TGI (NCI/ADR-RES ovarian): 59.9 µM
- TGI (RXF 393 renal): 47.3 µM
- TGI (MDA-MB-231 breast): 87.3 µM
- TGI (A498 renal): 50.4 µM
- TGI (IGROV1 ovarian): 75.1 µM
- TGI (TK-10 renal): > 100 µM
- TGI (HT29 colon): 59.1 µM
- TGI (HOP-62 NSCLC): > 100 µM
- TGI (UACC-257 melanoma): 80.2 µM
- TGI (HL-60(TB) leukemia): > 100 µM
- TGI (SF-295 CNS): > 100 µM
- TGI (ACHN renal): > 100 µM
- TGI (HCC-2998 colon): 76.7 µM
- TGI (LOX IMVI melanoma): 66.9 µM
- TGI (M14 melanoma): > 100 µM
- TGI (SNB-19 CNS): > 100 µM
- TGI (T-47D breast): 62.7 µM
- TGI (MDA-MB-435): 32.6 µM
- TGI (786-0 renal): 68.7 µM
- TGI (SK-OV-3 ovarian): > 100 µM
